This note sets out measurements from US5789434A, “Derivatives of substituted 4-biarylbutyric acid as matrix metalloprotease inhibitors” (priority 1995, dated 1998).

The target in one assay is T1, MMP-3 (Homo sapiens, UniProt P08254).
T1 construct: Truncated Prostromelysin-257 was expressed in a soluble form in E.coli; made in house; host or cells: E. coli
Description: Primary Thiopeptilide MMP-3 Inhibition Assay. Type of assay: biochemical. As to conditions: for inhibition at 5 µM: read-out: MMP-3 Thiopep. % inhibition; for IC50: 13 nM stromelysin, x (n) = average of n determinations.

For the next assay, the target named is T2, MMP-9 (Homo sapiens, UniProt P14780).
T2 construct: from tissue; host or cells: human polymorphonuclear leukocytes (PMN) from whole blood (New York Blood Center), PMA-stimulated supernatant
T2 sequence (P14780 107-707 limits assumed): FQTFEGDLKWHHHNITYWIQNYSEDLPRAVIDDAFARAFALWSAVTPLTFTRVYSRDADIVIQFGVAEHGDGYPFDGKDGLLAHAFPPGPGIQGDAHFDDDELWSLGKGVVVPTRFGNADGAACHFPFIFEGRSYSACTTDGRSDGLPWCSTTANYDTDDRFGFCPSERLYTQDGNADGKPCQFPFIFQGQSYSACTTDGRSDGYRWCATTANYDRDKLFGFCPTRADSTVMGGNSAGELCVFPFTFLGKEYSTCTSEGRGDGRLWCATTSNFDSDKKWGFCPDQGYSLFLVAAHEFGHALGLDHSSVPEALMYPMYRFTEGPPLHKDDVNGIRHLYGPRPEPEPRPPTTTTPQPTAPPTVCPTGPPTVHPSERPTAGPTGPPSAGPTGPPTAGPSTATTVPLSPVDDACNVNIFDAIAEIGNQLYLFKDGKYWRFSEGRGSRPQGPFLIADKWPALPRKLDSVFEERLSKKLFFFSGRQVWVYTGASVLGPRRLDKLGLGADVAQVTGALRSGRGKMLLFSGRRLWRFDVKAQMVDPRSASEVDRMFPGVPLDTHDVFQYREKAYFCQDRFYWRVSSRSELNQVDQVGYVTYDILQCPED
Nature of the assay: Thiopeptilide MMP-9 Inhibition Assay. The class given is biochemical. As to conditions: for inhibition at 5 µM: read-out: MMP-9: Thiopep. % inhibition.

[1] abbreviates: pH 6.5, read-out: MMP-3 Thiopep. IC50.
Setting [2] is: pH 6.5, x (n) = average of n determinations, read-out: MMP-9: Thiopep. IC50.

Counter-ions that a name gives are not always drawn. Like-named read-outs stand apart in the source and are kept apart here.

T1 sequence (P08254 100-274 limits assumed): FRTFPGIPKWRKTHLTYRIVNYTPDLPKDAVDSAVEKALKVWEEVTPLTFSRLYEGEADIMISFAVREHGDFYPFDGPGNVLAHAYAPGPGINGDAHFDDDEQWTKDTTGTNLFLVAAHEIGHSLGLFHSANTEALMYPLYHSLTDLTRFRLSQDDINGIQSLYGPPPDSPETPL
Description for MMP-3: Enzyme: recombinant stromelysin expressed in E.coli and purified as described above. […] The protocols for the assay of compounds as stromelysin inhibitors was the same as that used for MMP-9 except that the assay buffer was 50 mM MES, pH 6.5 containing 150 mM NaCl, 10 mM CaCl2, 0.005% Brij, and 1% DMSO.

Turning to `CC(C)CC(CC(=O)O)C(=O)c1ccc(-c2ccc(Cl)cc2)cc1` (single isomer, unassigned) [Example 5, 5-methyl-3-[oxo-(4'-chloro-4-biphenyl)methyl]hexanoic acid], the inhibition (commonly the change of the read-out against control, counted positive when it falls) at 5 µM is 11% on MMP-3 (at 5 μM) and 19% on MMP-9 (at 5 μM).

Take `CC(C)CC1CC(c2ccc(-c3ccc(Cl)cc3)cc2)OC1=O` (stereo not drawn) [Example 36, 2(3H)-Furanone, 5-(4'-chloro[1,1'-biphenyl]-4-yl)dihydro-3-(2-methylpropyl)-, reference compound]: the “MMP-3 Thiopep. % inhibition” value at MMP-3 (at 5 μM) is on record as 0%. The inhibition at 5 µM on MMP-9 (at 5 μM) is 0%.

On to `O=C(CC(CCCc1ccccc1)C(=O)O)c1ccc(-c2ccc(CO)cc2)cc1` (stereo not drawn) [Example 53, [1,1'-Biphenyl]-4-butanoic acid, 4'-(hydroxymethyl)-γ-oxo-α-(3-phenylpropyl)-], for which the values for the IC50 on MMP-3 (setting [1]) and on MMP-9 (setting [2]) were 950 nM and 800 nM, respectively.

Regarding `COc1cccc(SCC(CC(=O)c2ccc(-c3ccc(Cl)cc3)cc2)C(=O)O)c1` (stereo not drawn) [Example 234, [1,1'-Biphenyl]-4-butanoic acid, 4'-chloro-α-[[(3-methoxyphenyl)thio]methyl]-γ-oxo-], the IC50 (as a rule, the point on the concentration scale where inhibition reaches its midpoint) on MMP-3 (setting [1]) was determined as 144 nM; at MMP-9 (setting [2]), 600 nM.

Take `CC(C)CC(CC(=O)c1ccc(-c2ccccc2Cl)cc1)C(=O)O` (stereo not drawn) [Example 18, [1,1'-Biphenyl]-4-butanoic acid, 2'-chloro-α-(2-methylpropyl)-γ-oxo-]: the inhibition at 5 µM is 0.3% on MMP-3 (at 5 μM) and 9% at MMP-9 (at 5 μM).

In the case of `O=C(CC(CCCc1ccccc1)C(=O)O)c1ccc(-c2ccc(OCCO)cc2)cc1` (stereo not drawn) [Example 54, [1,1'-Biphenyl]-4-butanoic acid, 4'-(2-hydroxyethoxy)-γ-oxo-α-(3-phenylpropyl)-], the IC50 was determined as 190 nM on MMP-3 (setting [1]) and 700 nM on MMP-9 (setting [2]).

In the case of `O=C(CC(CSc1ccccc1F)C(=O)O)c1ccc(-c2ccc(Cl)cc2)cc1` (stereo not drawn) [Example 218, [1,1'-Biphenyl]-4-butanoic acid, 4'-chloro-α-[[(2-fluorophenyl)thio]methyl]-γ-oxo-], the IC50 on MMP-3 (setting [1]) turned out to be 170 nM; at MMP-9 (setting [2]), 435 nM.

Turning to `CN(C)CCC(CC(=O)c1ccc(-c2ccc(Cl)cc2)cc1)C(=O)O` (stereo not drawn) [Example 263, [1,1'-Biphenyl]-4-butanoic acid, 4'-chloro-α-[2-(dimethylamino)ethyl]-γ-oxo-, hydrochloride], the inhibition at 5 µM at MMP-3 (at 5 μM) amounted to 33%; on MMP-9 (at 5 μM), 21%.

With `O=C(CC(CSCCc1ccccc1)C(=O)O)c1ccc(-c2ccc(Cl)cc2)cc1` (stereo not drawn) [Example 205, [1,1'-Biphenyl]-4-butanoic acid, 4'-chloro-γ-oxo-α-[[(2-phenylethyl)thio]methyl]-], the IC50 stood at 87 nM at MMP-3 (setting [1]) and 170 nM on MMP-9 (setting [2]).

As to `CC(C)C[C@H](CC(=O)c1ccc(-c2ccc(Cl)cc2)cc1)C(=O)O` [Example 3, [1,1'-Biphenyl]-4-butanoic acid, 4'-chloro-α-(2-methylpropyl)-γ-oxo-, (R)-], the figures for the inhibition at 5 µM at MMP-3 (at 5 μM) and at MMP-9 (at 5 μM) were 13% and 0%, respectively.

On to `O=C(CC(CSc1cccs1)C(=O)O)c1ccc(-c2ccc(Cl)cc2)cc1` (stereo not drawn) [Example 199, [1,1'-Biphenyl]-4-butanoic acid, 4'-chloro-γ-oxo-α-[(2-thienylthio)methyl]-], for which the IC50 at MMP-3 (setting [1]) was 170 nM; at MMP-9 (setting [2]), 200 nM.

As for `CC(=O)c1ccc(-c2ccc(Cl)cc2)cc1` [Example 37, Ethanone, 1-(4'-chloro[1,1'-biphenyl]-4-yl)-], the inhibition at 5 µM on MMP-3 (at 5 μM) was 9%; on MMP-9 (at 5 μM), 0%.

Regarding `O=C(O)CCC(=O)c1ccc(-c2ccc(F)cc2)cc1` [Example 8, [1,1'-Biphenyl]-4-butanoic acid, 4'-fluoro-γ-oxo-, reference compound], the inhibition at 5 µM worked out at 26% at MMP-3 (at 5 μM) and 0% on MMP-9 (at 5 μM).

On to `O=C(CC(CSc1ccccc1O)C(=O)O)c1ccc(-c2ccc(Cl)cc2)cc1` (stereo not drawn) [Example 240, [1,1'-Biphenyl]-4-butanoic acid, 4'-chloro-α-[[(2-hydroxyphenyl)thio]methyl]-γ-oxo-], for which the IC50 was 96 nM at MMP-3 (setting [1]) and 300 nM on MMP-9 (setting [2]).

Consider `CCCCC(CC(=O)c1ccc(-c2ccc(Cl)cc2)cc1)C(=O)O` (stereo not drawn) [Example 120, [1,1'-Biphenyl]-4-butanoic acid, α-butyl-4'-chloro-γ-oxo-], for which the IC50 at MMP-3 (setting [1]) was 380 nM. Also, the inhibition at 5 µM on MMP-9 (at 5 μM) is 60%.

As to `O=C(CC(CSc1ccc(Cl)c(Cl)c1)C(=O)O)c1ccc(-c2ccc(Cl)cc2)cc1` (stereo not drawn) [Example 216, [1,1'-Biphenyl]-4-butanoic acid, 4'-chloro-α-[[(3,4-dichlorophenyl)thio]methyl]-γ-oxo-], the IC50 on MMP-3 (setting [1]) stood at 770 nM; on MMP-9 (setting [2]), 590 nM.

For the compound `NCc1ccc(-c2ccc(C(=O)CC(CCCc3ccccc3)C(=O)O)cc2)cc1` (stereo not drawn) [Example 59, [1,1'-Biphenyl]-4-butanoic acid, 4'-(aminomethyl)γ-oxo-α-(3-phenylpropyl)-], the inhibition at 5 µM on MMP-3 (at 5 μM) amounted to 33%. Further, the IC50 at MMP-9 (setting [2]) is 2000 nM.

Regarding `CC(C)(C)c1ccc(-c2ccc(C(=O)CC(CCCc3ccccc3)C(=O)O)cc2)cc1` (stereo not drawn) [Example 48, [1,1'-Biphenyl]-4-butanoic acid, 4'-(1,1-dimethylethyl)-γ-oxo-α-(3-phenylpropyl)-], the inhibition at 5 µM at MMP-3 (at 5 μM) is 53%; on MMP-9 (at 5 μM), 15%.

On to `O=C(CC(CCCc1ccccc1)C(=O)O)c1ccc(-c2ccc(-c3nnn[nH]3)cc2)cc1` (stereo not drawn) [Example 57, [1,1'-Biphenyl]-4-butanoic acid, γ-oxo-α-(3-phenylpropyl)-4'-(1H-tetrazol-5-yl)-], for which the figures for the inhibition at 5 µM at MMP-3 (at 5 μM) and at MMP-9 (at 5 μM) were 16% and 22%, respectively.

Turning to `O=C(O)CCC(=O)c1ccc(-c2ccccc2Cl)cc1` [Example 10, [1,1'-Biphenyl]-4-butanoic acid, 2'-chloro-γ-oxo-, reference compound], the results for the inhibition at 5 µM on MMP-3 (at 5 μM) and on MMP-9 (at 5 μM) were 1% and 0%, respectively.

Take `O=C(CC(CSc1cccc(Br)c1)C(=O)O)c1ccc(-c2ccc(Cl)cc2)cc1` (stereo not drawn) [Example 228, [1,1'-Biphenyl]-4-butanoic acid, α-[[(3-bromophenyl)thio]methyl]-4'-chloro-γ-oxo-]: the IC50 at MMP-3 (setting [1]) is 360 nM; at MMP-9 (setting [2]) it was 800 nM.

On to `O=C(CC(NC(c1ccccc1)c1ccccc1)C(=O)O)c1ccc(-c2ccc(Cl)cc2)cc1` (stereo not drawn) [Example 260, [1,1'-Biphenyl]-4-butanoic acid, 4'-chloro-α-[(diphenylmethyl)amino]-γ-oxo-, hydrochloride], for which, on MMP-3 (setting [1]), the IC50 came to 520 nM. Besides, the inhibition at 5 µM at MMP-9 was determined as 16%.

Take `C[Si](C)(C)CC(CC(=O)c1ccc(-c2ccc(Cl)cc2)cc1)C(=O)O` (stereo not drawn) [Example 133, [1,1'-Biphenyl]-4-butanoic acid, 4'-chloro-γ-oxo-α-[(trimethylsilyl)methyl]-]: the IC50 worked out at 640 nM on MMP-3 (MMP-3 Thiopep. IC50, pH 6.5) and 10000 nM against MMP-9.

With `Nc1ccc(-c2ccc(C(=O)CC(CCc3ccccc3)C(=O)O)cc2)cc1` (stereo not drawn) [Example 136, [1,1'-Biphenyl]-4-butanoic acid, 4'-amino-γ-oxo-α-(2-phenylethyl)-], the IC50 at MMP-3 (setting [1]) amounted to 1600 nM. Also, the inhibition at 5 µM on MMP-9 (at 5 μM) worked out at 50%.

As for `Cc1nc(-c2ccc(C(=O)CC(CC(C)C)C(=O)O)cc2)cs1` (stereo not drawn) [Example 348, Benzenebutanoic acid, α-(2-methylpropyl)-4-(2-methyl-4-thiazolyl)γ-oxo-], the inhibition at 5 µM was 31% on MMP-3 (at 5 μM) and 36% at MMP-9 (at 5 μM).

As to `N#Cc1ccc(-c2ccc(C(=O)CC(CCc3ccccc3)C(=O)O)cc2)cc1` (stereo not drawn) [Example 125, [1,1'-Biphenyl]-4-butanoic acid, 4'-cyano-γ-oxo-α-(2-phenylethyl)-], the IC50 on MMP-3 (setting [1]) was 105 nM; on MMP-9 (setting [2]) it was 1800 nM.

Regarding `CC(C)(CC(=O)O)CC(=O)c1ccc(-c2ccc(Cl)cc2)cc1` [Example 334, [1,1'-Biphenyl]-4-pentanoic acid, 4'-chloro-β,β-dimethyl-δ-oxo-], the inhibition at 5 µM at MMP-3 (at 5 μM) is 42%. Also, on MMP-9 (setting [2]), the concentration for half-maximal inhibition (IC50) was determined as 6000 nM.

On to `CC(=O)Oc1ccc(-c2ccc(C(=O)CC(CCCc3ccccc3)C(=O)O)cc2)cc1` (stereo not drawn) [Example 67, [1,1'-Biphenyl]-4-butanoic acid, 4'-(acetyloxy)-γ-oxo-α-(3-phenylpropyl)-], for which the IC50 at MMP-3 (setting [1]) came out at 150 nM; on MMP-9 (setting [2]), 780 nM.

On to `O=C(CC(CSc1ccc2ccccc2c1)C(=O)O)c1ccc(-c2ccc(Cl)cc2)cc1` (stereo not drawn) [Example 226, [1,1'-Biphenyl]-4-butanoic acid, 4'-chloro-α-[(2-naphthalenylthio)methyl]-γ-oxo-], for which the values for the concentration for half-maximal inhibition (IC50) on MMP-3 (setting [1]) and at MMP-9 (setting [2]) were 720 nM and 255 nM, respectively.

In the case of `CC(CC(=O)O)CC(=O)c1ccc(-c2ccc(Cl)cc2)cc1` (stereo not drawn) [Example 332, [1,1'-Biphenyl]-4-pentanoic acid, 4'-chloro-β-methyl-δ-oxo-, reference compound], the inhibition at 5 µM at MMP-3 (at 5 μM) was found to be 37%; on MMP-9 (at 5 μM) it was 41%.

Regarding `O=C(O)/C=C/C(=O)c1ccc(Oc2ccc(Cl)cc2)cc1` [Example 30, 2-Butenoic acid, 4-[4-(4-chlorophenoxy)penyl]-4-oxo-, (E)-, reference compound], the figures for the inhibition at 5 µM on MMP-3 (at 5 μM) and on MMP-9 (at 5 μM) were 8% and 25%, respectively.

With `O=C(CC(CSc1ccc([N+](=O)[O-])cc1)C(=O)O)c1ccc(-c2ccc(Cl)cc2)cc1` (stereo not drawn) [Example 224, [1,1'-Biphenyl]-4-butanoic acid, 4'-chloro-α[[(4-nitrophenyl)thio]methyl]-γ-oxo-], the IC50 on MMP-3 (setting [1]) came to 680 nM; at MMP-9 (setting [2]), 550 nM.

As for `COc1ccc(CCCC(CC(=O)c2ccc(-c3ccc(Cl)cc3)cc2)C(=O)O)cc1` (stereo not drawn) [Example 186, [1,1'-Biphenyl]-4-butanoic acid, 4'-chloro-α[3-(4-methoxyphenyl)propyl]-γ-oxo-], the IC50 worked out at 170 nM at MMP-3 (setting [1]) and 383 nM on MMP-9 (setting [2]).
